pIC50: −log10 of the molar value.
molecular target: Voltage-dependent T-type calcium channel subunit alpha-1G (Homo sapiens, UniProt O43497); assay: In Vitro Cav3.1 Single Point and IC50 (VDB) Data
Procedure: The compound plate was created at 2× concentrated in the extracellular solution. The compound was diluted to 1:2 when added to the recording well. The amount of DMSO in the extracellular solution was held constant at the level used for the highest tested concentration. For the voltage clamp experiments on Cav3.1, data were sampled at 10 KHz. After establishment of the seal and the passage in the whole cell configuration, the cells were held at −120 mV. Cav3.1 current was evoked using a 100 ms step to −20 mV (to measure resting state block), followed by a 1600 ms step to −65 mV and a second 100 ms step to −20 mV (to measure voltage dependent block). The voltage protocol was applied every 15 seconds in the absence and in the presence of the compounds under investigation. […] Current amplitude (pA) was measured in the peak 1 and 2. The average of last 3 sweeps of each liquid period (vehicle, compound under investigation, full block) was calculated. Nickel-sensitive current was used to calculate the % of inhibition in the presence of the compound under investigation.

Voltage-dependent T-type calcium channel subunit alpha-1G, sequence (O43497 whole entry): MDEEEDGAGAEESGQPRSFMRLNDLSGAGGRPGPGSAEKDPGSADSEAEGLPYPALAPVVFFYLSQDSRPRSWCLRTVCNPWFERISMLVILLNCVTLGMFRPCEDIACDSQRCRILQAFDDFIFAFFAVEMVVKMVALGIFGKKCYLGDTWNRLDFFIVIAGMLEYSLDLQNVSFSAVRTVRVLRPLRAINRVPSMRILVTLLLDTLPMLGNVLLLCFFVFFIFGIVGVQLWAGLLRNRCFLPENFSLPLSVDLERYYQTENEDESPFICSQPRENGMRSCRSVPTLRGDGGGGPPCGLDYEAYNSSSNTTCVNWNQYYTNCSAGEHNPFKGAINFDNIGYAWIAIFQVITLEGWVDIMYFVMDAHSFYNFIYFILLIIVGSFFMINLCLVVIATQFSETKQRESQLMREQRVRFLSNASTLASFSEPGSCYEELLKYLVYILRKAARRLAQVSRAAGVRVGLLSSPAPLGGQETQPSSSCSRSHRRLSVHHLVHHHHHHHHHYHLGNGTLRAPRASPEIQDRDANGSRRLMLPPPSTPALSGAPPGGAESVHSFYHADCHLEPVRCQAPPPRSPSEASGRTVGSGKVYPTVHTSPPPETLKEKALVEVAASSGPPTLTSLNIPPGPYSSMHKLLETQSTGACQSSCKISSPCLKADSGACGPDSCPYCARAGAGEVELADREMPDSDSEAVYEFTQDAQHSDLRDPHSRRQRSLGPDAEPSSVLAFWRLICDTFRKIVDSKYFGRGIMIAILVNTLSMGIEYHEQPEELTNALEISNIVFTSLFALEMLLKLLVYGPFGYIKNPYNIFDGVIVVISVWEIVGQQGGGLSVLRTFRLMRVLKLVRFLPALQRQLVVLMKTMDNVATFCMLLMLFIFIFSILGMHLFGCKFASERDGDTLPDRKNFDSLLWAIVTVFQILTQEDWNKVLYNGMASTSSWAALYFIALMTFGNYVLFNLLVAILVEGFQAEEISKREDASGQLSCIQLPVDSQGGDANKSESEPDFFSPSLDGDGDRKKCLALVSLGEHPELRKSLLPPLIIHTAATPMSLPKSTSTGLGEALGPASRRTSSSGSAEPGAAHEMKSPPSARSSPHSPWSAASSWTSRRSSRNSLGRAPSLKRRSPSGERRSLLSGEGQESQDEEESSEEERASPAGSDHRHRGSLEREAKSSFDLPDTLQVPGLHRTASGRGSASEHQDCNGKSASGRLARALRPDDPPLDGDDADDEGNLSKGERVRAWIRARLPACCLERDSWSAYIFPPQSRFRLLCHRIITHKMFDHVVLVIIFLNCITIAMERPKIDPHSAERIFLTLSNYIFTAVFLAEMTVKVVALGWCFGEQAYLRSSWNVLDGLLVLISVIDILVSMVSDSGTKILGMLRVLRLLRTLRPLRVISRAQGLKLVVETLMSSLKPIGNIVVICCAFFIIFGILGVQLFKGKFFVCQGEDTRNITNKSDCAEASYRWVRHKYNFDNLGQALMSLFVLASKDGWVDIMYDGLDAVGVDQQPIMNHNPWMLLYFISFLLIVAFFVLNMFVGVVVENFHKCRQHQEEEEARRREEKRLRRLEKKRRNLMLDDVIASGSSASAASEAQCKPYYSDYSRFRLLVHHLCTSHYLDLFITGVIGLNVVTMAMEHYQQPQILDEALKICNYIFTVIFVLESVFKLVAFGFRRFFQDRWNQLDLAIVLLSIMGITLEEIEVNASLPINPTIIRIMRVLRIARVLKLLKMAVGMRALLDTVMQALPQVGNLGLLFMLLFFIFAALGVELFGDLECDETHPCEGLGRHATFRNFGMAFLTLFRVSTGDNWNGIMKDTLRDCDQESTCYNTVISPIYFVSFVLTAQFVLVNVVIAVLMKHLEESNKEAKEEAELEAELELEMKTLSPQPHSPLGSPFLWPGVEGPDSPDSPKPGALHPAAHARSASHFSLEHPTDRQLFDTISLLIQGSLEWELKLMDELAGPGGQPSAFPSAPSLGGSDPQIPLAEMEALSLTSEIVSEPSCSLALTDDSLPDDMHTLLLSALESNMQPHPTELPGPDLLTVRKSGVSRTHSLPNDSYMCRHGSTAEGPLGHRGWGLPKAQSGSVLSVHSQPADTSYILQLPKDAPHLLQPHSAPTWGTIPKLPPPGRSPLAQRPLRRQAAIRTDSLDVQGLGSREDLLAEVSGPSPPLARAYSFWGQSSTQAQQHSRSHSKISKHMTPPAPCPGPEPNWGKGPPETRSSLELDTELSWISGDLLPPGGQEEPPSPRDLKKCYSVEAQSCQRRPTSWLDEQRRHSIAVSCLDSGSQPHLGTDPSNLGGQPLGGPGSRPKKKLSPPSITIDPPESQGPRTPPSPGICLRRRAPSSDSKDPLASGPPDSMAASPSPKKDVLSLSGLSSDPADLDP

Row | Compound | pIC50
1 | COc1cc(F)cc(NC(=O)C2CCC3(CC2)CN(CC(=O)NC(C)(C)C)C3)c1 [US20250214932, Example 46] | 6.66
2 | Cc1cc(F)cc(NC(=O)C2CCC3(CC2)CN(CC(=O)NC(C)(C)C)C3)c1 [US20250214932, Example 48] | 6.71
3 | O=C(Nc1cc(F)cc(C(F)F)c1)C1CCC2(CC1)CN(CCNC(=O)C1(C(F)(F)F)CCC1)C2 [US20250214932, Example 52] | 6.58
4 | O=C(Nc1cc(F)cc(Cl)c1)C1CCC2(CC1)CN(CC(O)C1CCCCC1)C2 (centres undefined) [US20250214932, Example 68] | 6.77
5 | O=C(CN1CC2(CCC(C(=O)Nc3cc(F)cc(C(F)F)c3)CC2)C1)NC1(C(F)(F)F)CC1 [US20250214932, Example 79] | > 7.11
6 | O=C(CN1CC2(CCC(C(=O)Nc3cc(F)cc(C(F)F)c3)CC2)C1)NC1(C(F)(F)F)CCC1 [US20250214932, Example 85] | 6.79

More lines, now with the values ahead:

Row | pIC50 | Compound
7 | 6.39 | O=C(Nc1cc(F)cc(C(F)F)c1)C1CCC2(CC1)CN(CC(F)(F)C1CCCC1)C2 [US20250214932, Example 100]
8 | 5.87 | COc1cc(Cl)cc(NC(=O)C2CCC3(CC2)CN(CC2(C#N)CC2)C3)c1 [US20250214932, Example 129]
9 | 6.73 | O=C(NC12CC3CC(CC(C3)C1)C2)C1CCC2(CC1)CN(CC1(O)CCC(F)(F)CC1)C2 [US20250214932, Example 153]

Reference: BindingDB's records for patent US20250214932 (Praxis Precision Medicines, 2025)
